Source: patent US20040116420A1 (priority 2001, published 2004)

Experiments:
[1] = molecular target: T1, HSV-1 protease (Human herpesvirus 1, UniProt P10210); test: Enzymatic assay for HSV-1 protease (assembly) inhibitor, fluorescence polarization; type: biochemical; details: read-out: HSV-1 Enzyme inhibition IC50
T1 construct: 6xHis (N); made in house; host or cells: baculovirus expression system
Procedure, shortened: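 Fluorescence polarization read-out: after avidin stop, cleavage of a biotinylated DTAF-labelled release-site peptide by recombinant N-His6 HSV-1 protease was compared with no-inhibitor wells. Enzyme and compound were preincubated 30 min, then substrate reacted 60 min, all at room temperature, pH 7.4 citrate buffer with TCEP.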

[2] = Human plasma stability; type: in vitro ADME
Method: An Assay Method for Human Plasma Stability Human plasma was thawed, 200 μl each thereof was placed in each cell of a 96-well plate immediately thereafter, and 4 μl of solution of each test compound in 1 mM DMF was added thereto. A microplate reader for fluorescence absorption was used to assay changes in fluorescence, and half life was determined based on the changes.

[3] = test system: HSV1 DNA polymerase variant; test: Antiviral activity 2, plaque formation in HEL cells; type: cell-based, HSV-1; details: Human alphaherpesvirus 1, HEL, 72 h, read-out: Antiviral activity: IC50, HSV1 DNA polymerase variant
Method: (§1) An Assay Method for Antiviral Activity 2
(§2) The HEL cells were sowed on a 48-well plate and then cultured overnight. The culture supernatant was removed, and 100 μl of 2% FBS-DMEM containing 40 Plaque-forming units of HSV-1, HSV-2, VZV, or CMV was added. A viral solution Was removed 1 hour later, and 500 μl of 2% FBS-DMEM containing 0.5% methylcellulose comprising 50, 25, 12.5, 6.3, 3.2, or 1.6 μM of the test compound was added. In this case, a substance to which 2% FBS-DMEM containing 0.5% methylcellulose not comprising any test compound had been added was designated as a control. In the case of HSV-1, HSV-2, or VZV, incubation was carried out in the presence of 5% CO2 at 37° C. for 3 days. In the case of CMV, incubation was carried out under the same conditions for 14 days. After they were immobilized on formalin and stained with bromophenol blue, the amount of plaque formed was counted, and the ratio of plaque formation of the drug-containing reaction system relative to the control was determined. The concentration of the drug with which the ratio of plaque formation reaches 50% was calculated and determined to be IC50. Concerning HSV-1, an aciclovir-resistant thymidine kinase variant and a DNA polymerase variant were examined in addition to a general aciclovir-sensitive strain.

[4] = test system: HSV1 Sensitive strain; test: as above; type: cell-based, HSV-1; details: Human alphaherpesvirus 1, 72 h, 3 days
Method: as §1, §2

[5] = test system: HSV1 Thimidine kinase variant; test: as above; type: cell-based, HSV-1; details: Human alphaherpesvirus 1, HEL, 72 h, read-out: Antiviral activity: IC50, HSV1 Thimidine kinase variant
Method: as §1, §2

[6] = test system: HCMV; test: as above; type: cell-based, CMV; details: Human betaherpesvirus 5, 336 h, 14 days
Method: as §1, §2

T1 sequence (P10210 1-247): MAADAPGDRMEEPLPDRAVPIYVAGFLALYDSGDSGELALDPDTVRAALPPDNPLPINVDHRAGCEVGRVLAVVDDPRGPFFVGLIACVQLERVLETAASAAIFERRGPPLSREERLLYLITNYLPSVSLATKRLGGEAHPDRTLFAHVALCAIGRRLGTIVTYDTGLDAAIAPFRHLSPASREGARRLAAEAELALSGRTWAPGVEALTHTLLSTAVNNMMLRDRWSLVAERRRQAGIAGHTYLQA

**Q.** Which IC50 [1] does the source give for `Cc1c(NC(=O)OC(C)(C)C)ccc2nc(NC(C)(C)C(=O)N(C)CCc3ccccn3)oc(=O)c12` [Compound No.18, (5-methyl-2-{1-methyl-1-[methyl-(2-pyridin-2-yl-ethyl)-carbamoyl]-ethylamino}-4-oxo-4H-benzo[d][1,3]oxazin-6-yl)-carbamic Acid Tert-Butyl Ester] here?
**A.** 0.4 µM

**Q.** What about the half-life at 19.6 μM [2] of the same compound?
**A.** 2.83 h

**Q.** And the IC50 [3]?
**A.** 17.1 µM

**Q.** What about the IC50 [4] of the same compound?
**A.** 10 µM

**Q.** What about the IC50 [5] of the same compound?
**A.** 22.5 µM

**Q.** What about the IC50 [6] of the same compound?
**A.** 11.1 µM
